Where two headings read alike, the source gives them in different places.
Columns and labels:
[1] = target: ErbB2 insYVMA (HER2-YVMA, SEQ ID NO: 2) (Homo sapiens, UniProt P04626, INS775YVMA/P1170A); experiment: biochemical; conditions: ErbB2 insYVMA enzyme assay
[2] = target: ErbB2 WT (Homo sapiens (Human), UniProt P04626); experiment: ErbB enzyme assay (CisBio HTRF KinEASE-TK), Assay 2; format: biochemical
Procedure, shortened: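 Readout is HTRF KinEASE-TK, using Sa-XL665 and cryptate antibody for 1 h at 22 °C, as percent of control between DMSO-only (100) and pre-quenched (0) reactions. The kinase reaction runs 30 min at 22 °C with 1 mM ATP and 250 nM biotinylated TK substrate, in HEPES pH 7.4 with MgCl2 and 2% DMSO.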

[3] = target: EGFR (Homo sapiens (Human), UniProt P00533); experiment: ErbB enzyme assay (CisBio HTRF KinEASE-TK), Assay 3; format: biochemical
Sequence of EGFR (P00533 25-1210): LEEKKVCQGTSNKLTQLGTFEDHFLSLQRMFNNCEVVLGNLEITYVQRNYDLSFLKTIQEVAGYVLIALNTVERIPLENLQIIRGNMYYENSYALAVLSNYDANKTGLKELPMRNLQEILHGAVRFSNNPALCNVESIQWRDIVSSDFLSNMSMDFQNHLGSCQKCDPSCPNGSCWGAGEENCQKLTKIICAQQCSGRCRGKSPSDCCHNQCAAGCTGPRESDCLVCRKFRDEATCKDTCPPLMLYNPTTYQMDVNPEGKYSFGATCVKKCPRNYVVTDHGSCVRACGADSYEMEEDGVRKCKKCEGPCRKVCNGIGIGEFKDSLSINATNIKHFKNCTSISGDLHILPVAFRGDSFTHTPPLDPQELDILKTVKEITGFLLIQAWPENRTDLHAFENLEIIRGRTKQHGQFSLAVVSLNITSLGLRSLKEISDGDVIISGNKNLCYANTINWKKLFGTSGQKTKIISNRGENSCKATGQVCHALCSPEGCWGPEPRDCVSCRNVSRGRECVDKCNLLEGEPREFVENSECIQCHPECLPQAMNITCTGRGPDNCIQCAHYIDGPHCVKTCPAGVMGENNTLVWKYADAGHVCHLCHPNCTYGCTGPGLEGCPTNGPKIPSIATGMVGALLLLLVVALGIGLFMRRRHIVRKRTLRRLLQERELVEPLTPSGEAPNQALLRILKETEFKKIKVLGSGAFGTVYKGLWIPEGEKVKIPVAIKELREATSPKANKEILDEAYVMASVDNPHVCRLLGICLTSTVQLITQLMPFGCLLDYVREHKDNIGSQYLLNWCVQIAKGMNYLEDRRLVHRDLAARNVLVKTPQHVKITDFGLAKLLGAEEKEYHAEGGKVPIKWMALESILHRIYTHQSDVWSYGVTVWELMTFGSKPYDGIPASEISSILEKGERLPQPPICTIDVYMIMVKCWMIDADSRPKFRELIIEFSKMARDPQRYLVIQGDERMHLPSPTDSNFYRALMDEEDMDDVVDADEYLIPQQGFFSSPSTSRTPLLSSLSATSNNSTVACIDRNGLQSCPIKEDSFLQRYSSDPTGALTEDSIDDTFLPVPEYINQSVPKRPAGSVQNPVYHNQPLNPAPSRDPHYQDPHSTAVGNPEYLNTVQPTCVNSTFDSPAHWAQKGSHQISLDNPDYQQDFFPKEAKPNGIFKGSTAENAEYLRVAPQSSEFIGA
Procedure, shortened: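 HTRF dual-wavelength read after 1 h detection; POC normalised to DMSO (100) and pre-quenched (0) controls, IC50 where 4-parameter curve crosses 50 POC. Reaction: 250 nM TK-substrate biotin, 1 mM ATP, pH 7.4 HEPES buffer with MgCl2, 30 min, 22 °C.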

[4] = target: ErbB2 with Exon 20 YVMA insertion (HER2-YVMA) (Homo sapiens (Human), UniProt P04626, INS775YVMA); experiment: Cellular phosphorylation assay, constitutive ErbB2 phosphorylation (Y1196) in engineered NIH 3T3 cells, Assay 4; format: cell-based
Sequence of ErbB2 with Exon 20 YVMA insertion (HER2-YVMA) (P04626 other isoform, or with tags, fused parts or gaps ins YVMA behind 775): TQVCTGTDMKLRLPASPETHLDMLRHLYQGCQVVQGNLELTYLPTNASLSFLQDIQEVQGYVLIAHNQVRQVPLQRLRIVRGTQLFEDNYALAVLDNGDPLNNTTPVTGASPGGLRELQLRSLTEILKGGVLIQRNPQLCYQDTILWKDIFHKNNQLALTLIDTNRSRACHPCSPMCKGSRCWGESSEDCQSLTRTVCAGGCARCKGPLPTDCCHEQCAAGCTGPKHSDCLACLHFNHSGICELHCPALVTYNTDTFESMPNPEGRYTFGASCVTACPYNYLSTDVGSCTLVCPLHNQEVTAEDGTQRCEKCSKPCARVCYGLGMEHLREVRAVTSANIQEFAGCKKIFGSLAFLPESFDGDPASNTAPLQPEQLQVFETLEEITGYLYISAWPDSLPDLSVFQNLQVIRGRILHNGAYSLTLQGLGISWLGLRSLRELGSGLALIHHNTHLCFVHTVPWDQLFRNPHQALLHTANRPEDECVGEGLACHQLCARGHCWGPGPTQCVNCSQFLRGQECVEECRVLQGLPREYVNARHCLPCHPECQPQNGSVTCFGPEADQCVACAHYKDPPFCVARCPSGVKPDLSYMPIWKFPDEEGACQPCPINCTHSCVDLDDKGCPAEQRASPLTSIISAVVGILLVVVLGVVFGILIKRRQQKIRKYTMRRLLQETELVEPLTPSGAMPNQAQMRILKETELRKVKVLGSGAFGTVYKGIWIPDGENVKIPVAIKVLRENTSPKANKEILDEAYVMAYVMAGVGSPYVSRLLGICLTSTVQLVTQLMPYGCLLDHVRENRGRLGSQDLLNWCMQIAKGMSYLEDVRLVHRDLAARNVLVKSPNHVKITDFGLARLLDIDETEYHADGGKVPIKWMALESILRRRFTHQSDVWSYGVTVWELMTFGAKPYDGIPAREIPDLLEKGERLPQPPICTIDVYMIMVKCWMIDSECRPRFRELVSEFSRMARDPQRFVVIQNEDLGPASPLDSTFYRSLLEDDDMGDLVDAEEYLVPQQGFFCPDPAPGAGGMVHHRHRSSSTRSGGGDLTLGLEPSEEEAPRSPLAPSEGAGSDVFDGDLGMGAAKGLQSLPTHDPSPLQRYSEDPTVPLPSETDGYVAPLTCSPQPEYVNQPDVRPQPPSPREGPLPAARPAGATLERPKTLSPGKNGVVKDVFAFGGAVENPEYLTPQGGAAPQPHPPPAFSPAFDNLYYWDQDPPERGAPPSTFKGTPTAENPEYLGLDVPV
Procedure, shortened: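 In-cell Western in NIH 3T3 cells carrying ErbB2 exon 20 YVMA insertion, with no ligand stimulation. One hour compound exposure at 37 °C before fixation and anti-pY1196 plus GAPDH staining with dual-wavelength fluorescence. IC50 derived after GAPDH normalization.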

[5] = target: EGFR wild type (EGFR WT) (Homo sapiens (Human), UniProt P00533); experiment: Cellular phosphorylation assay, EGF-stimulated EGFR phosphorylation in engineered NIH 3T3 cells, Phospho-EGFR DuoSet IC ELISA, Assay 5; format: cell-based
Sequence of EGFR wild type (EGFR WT) (P00533 25-1210): as the sequence (P00533 25-1210) above
Procedure, shortened: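 Phospho-EGFR ELISA on lysates of engineered NIH 3T3 EGFR WT cells, IC50 derived from concentration curves. Cells plated at 20,000/well overnight, given compound dilutions 1 h at 37 °C, then rEGF 100 ng/ml for a further 10 min before lysis.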

Sequence of ErbB2 insYVMA (HER2-YVMA, SEQ ID NO: 2) (P04626 with tags, fused parts or gaps INS775YVMA/P1170A limits assumed): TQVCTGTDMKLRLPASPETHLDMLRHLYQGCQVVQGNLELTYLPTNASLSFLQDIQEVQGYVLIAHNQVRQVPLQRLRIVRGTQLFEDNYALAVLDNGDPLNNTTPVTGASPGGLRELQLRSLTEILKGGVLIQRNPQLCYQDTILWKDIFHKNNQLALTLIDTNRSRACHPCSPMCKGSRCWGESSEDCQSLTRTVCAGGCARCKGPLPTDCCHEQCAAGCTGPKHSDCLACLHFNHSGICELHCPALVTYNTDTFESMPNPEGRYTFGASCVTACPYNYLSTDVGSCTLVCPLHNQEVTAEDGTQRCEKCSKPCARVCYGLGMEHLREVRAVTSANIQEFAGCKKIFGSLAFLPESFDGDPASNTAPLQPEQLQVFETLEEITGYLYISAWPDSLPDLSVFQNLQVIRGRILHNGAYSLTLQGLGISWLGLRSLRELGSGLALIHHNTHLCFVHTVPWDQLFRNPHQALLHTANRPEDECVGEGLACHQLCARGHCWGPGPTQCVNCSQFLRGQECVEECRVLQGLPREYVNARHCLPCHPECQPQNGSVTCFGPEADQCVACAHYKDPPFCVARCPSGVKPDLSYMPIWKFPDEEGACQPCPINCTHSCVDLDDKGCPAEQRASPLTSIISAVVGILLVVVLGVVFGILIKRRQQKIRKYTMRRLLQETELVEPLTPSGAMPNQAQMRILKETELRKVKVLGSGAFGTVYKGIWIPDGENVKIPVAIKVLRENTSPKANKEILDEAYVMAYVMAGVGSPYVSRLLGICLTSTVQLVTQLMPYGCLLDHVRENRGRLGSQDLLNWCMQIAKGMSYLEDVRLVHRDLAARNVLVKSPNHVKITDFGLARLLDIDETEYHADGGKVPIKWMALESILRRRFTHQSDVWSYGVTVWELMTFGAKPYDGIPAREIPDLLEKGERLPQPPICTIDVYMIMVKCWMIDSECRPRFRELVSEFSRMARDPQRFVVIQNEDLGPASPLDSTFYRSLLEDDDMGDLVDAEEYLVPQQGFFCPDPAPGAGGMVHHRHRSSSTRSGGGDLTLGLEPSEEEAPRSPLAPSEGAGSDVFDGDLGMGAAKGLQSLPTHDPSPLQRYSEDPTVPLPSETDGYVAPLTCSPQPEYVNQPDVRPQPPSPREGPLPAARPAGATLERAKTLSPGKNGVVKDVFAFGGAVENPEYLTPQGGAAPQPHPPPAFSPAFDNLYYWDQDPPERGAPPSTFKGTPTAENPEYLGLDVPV

Structure (SMILES)	IC50 ([1]; Assay 1 IC50 (nM))	IC50 [2]	IC50 [3]	IC50 [4]	IC50 [5]	IC50 ([1]; read-out: Assay 1 IC50)
Cn1cnc2cc(Oc3ccc(Nc4ncnc5cnc(N6CC7CCC(C6)O7)nc45)cc3Cl)ccc21 [Example 447]	46.8 nM	91 nM	≥ 10000 nM	12.2 nM	≥ 5000 nM	–
Cn1cnc2cc(Oc3ccc(Nc4ncnc5cnc(N6CCC(C)(O)CC6)nc45)cc3Cl)ccc21 [Example 480]	–	23.3 nM	5040 nM	4.4 nM	≥ 5000 nM	18.1 nM
O[C@@H]1CN(c2ncc3ncnc(Nc4ccc(Oc5ccn6ncnc6c5)c(Cl)c4)c3n2)CC1(F)F [Example 323]	–	75.4 nM	9720 nM	59.9 nM	≥ 5000 nM	12.2 nM
O[C@H]1[C@@H]2CC[C@H]1CN(c1ncc3ncnc(Nc4ccc(Oc5ccn6ncnc6c5)c(Cl)c4)c3n1)C2 [Example 342]	–	25.3 nM	1670 nM	108 nM	≥ 5000 nM	10.4 nM
Clc1cc(Nc2ncnc3cnc(N4CC[C@@]45CCOC5)nc23)ccc1Oc1ccn2ncnc2c1 [Example 434]	–	10.2 nM	760 nM	161 nM	≥ 5000 nM	8.4 nM
Cc1cc(Nc2ncnc3cnc(N=S4(=O)CCOCC4)nc23)ccc1Oc1ccc2c(c1)ncn2C [Example 138, 4-((8-((3-methyl-4-((1-methyl-1H-benzo[d]imidazol-5-yl)oxy)phenyl)amino)pyrimido[5,4-d]pyrimidin-2-yl)imino)-1,4λ^6-oxathiane 4-oxide]	–	33.6 nM	4910 nM	58.2 nM	≥ 5000 nM	32.2 nM
Cn1cnc2cc(Oc3ccc(Nc4ncnc5cnc(N6CCC7(CCOC7)C6)nc45)cc3Cl)ccc21 (centres unmarked) [Example 443]	60.1 nM	104 nM	≥ 10000 nM	37.7 nM	≥ 5000 nM	–
Clc1cc(Nc2ncnc3cnc(N4C[C@@H]5C[C@H]4CO5)nc23)ccc1Oc1ccn2ncnc2c1 [Example 426]	–	16.2 nM	4210 nM	112 nM	≥ 5000 nM	16.2 nM
Cc1cc(Nc2ncnc3cnc(N4CC5(CCC5O)C4)nc23)ccc1Oc1ccc2c(c1)ncn2C (centres unmarked) [Example 465]	–	47.6 nM	≥ 10000 nM	67.8 nM	≥ 5000 nM	44.3 nM
Cc1c(Oc2ccn3ncnc3c2)ccc(Nc2ncnc3cnc(N(C)CC4(O)CCC4)nc23)c1F [Example 315]	–	64.8 nM	3690 nM	1490 nM	≥ 5000 nM	39.3 nM
Cc1cc(Nc2ncnc3cnc(N4C[C@H]5C[C@@H]4C[C@H]5O)nc23)ccc1Oc1ccc2c(c1)ncn2C [Example 459]	–	36.6 nM	≥ 10000 nM	45.1 nM	≥ 5000 nM	18.7 nM
Cc1cc(Nc2ncnc3cnc(N(C)[C@H]4C[C@@H](C(C)(C)O)C4)nc23)ccc1Oc1ccc2c(c1)ncn2C [Example 467]	–	34.5 nM	4790 nM	19.4 nM	≥ 5000 nM	26.4 nM
Cc1cc(Nc2ncnc3cnc(N(C)CC(C)(C)CO)nc23)ccc1Oc1ccc2c(c1)ncn2C [Example 364]	–	29.5 nM	2680 nM	25.7 nM	≥ 5000 nM	32.8 nM
Cc1cc(Nc2ncnc3cnc(N4CCC(C)(O)CC4)nc23)c(Cl)cc1Oc1ccc2c(c1)ncn2C [Example 482]	–	446 nM	≥ 10000 nM	229 nM	≥ 5000 nM	76.7 nM
Cc1c(Oc2ccn3ncnc3c2)ccc(Nc2ncnc3cnc(N(C)CC(F)F)nc23)c1F [Example 317]	–	101 nM	≥ 10000 nM	402 nM	≥ 5000 nM	18.1 nM
Cc1cc(Nc2ncnc3cnc(N4CC[C@H](OC(F)F)C4)nc23)ccc1Oc1ccn2ncnc2c1 [Example 361]	–	39.2 nM	7480 nM	312 nM	≥ 5000 nM	26.4 nM
CON(C)CCNc1ncc2ncnc(Nc3ccc(Oc4ccc5c(c4)ncn5C)c(C)c3)c2n1 [Example 219, N2-(2-(methoxy(methyl)amino)ethyl)-N8-(3-methyl-4-((1-methyl-1H-benzo[d]imidazol-5-yl)oxy)phenyl)pyrimido[5,4-d]pyrimidine-2,8-diamine]	–	27.6 nM	2110 nM	6.2 nM	≥ 5000 nM	14.8 nM

Structure (SMILES)	IC50 ([1]; Assay 1 IC50 (nM))	IC50 [2]	IC50 [3]	IC50 [4]	IC50 [5]	IC50 ([1]; read-out: Assay 1 IC50)
Cn1cnc2cc(Oc3ccc(Nc4ncnc5cnc(N6CCN[C@H](C(F)(F)F)C6)nc45)cc3Cl)ccc21 [Example 445]	–	64.5 nM	4500 nM	44.2 nM	≥ 5000 nM	65 nM
Cc1cc(Nc2ncnc3cnc(N4CCN[C@@H](C(F)(F)F)C4)nc23)ccc1Oc1ccn2ncnc2c1 [Example 421]	–	43 nM	4940 nM	69.9 nM	≥ 5000 nM	29.3 nM
Cc1cc(Nc2ncnc3cnc(N(C)C[C@@H]4COCCO4)nc23)ccc1Oc1ccc2c(c1)ncn2C [Example 353]	–	47.5 nM	≥ 10000 nM	18.1 nM	≥ 5000 nM	48.2 nM
Cn1cnc2cc(Oc3ccc(Nc4ncnc5cnc(N6CC[C@@H](C#N)C6)nc45)cc3Cl)ccc21 [Example 444]	–	52.6 nM	≥ 10000 nM	41.7 nM	≥ 5000 nM	24.3 nM
CON1CCN(c2ncc3ncnc(Nc4cc(C)c(Oc5ccc6c(c5)ncn6C)cc4F)c3n2)CC1 [Example 486]	–	138 nM	≥ 10000 nM	133 nM	≥ 5000 nM	29.6 nM
Clc1cc(Nc2ncnc3cnc(N4CCN5CCOC[C@H]5C4)nc23)ccc1Oc1ccn2ncnc2c1 [Example 430]	–	25.5 nM	4030 nM	31.9 nM	≥ 5000 nM	8.6 nM
COC[C@@H]1CCN1c1ncc2ncnc(Nc3ccc(Oc4ccn5ncnc5c4)c(Cl)c3)c2n1 [Example 328]	–	105 nM	≥ 10000 nM	306 nM	≥ 5000 nM	17.9 nM
Cn1cnc2cc(Oc3ccc(Nc4ncnc5cnc(N6CCOC7(CC7)C6)nc45)cc3Cl)ccc21 [Example 449]	–	152 nM	≥ 10000 nM	6.2 nM	≥ 5000 nM	157 nM
CC1(O)CN(c2ncc3ncnc(Nc4ccc(Oc5ccn6ncnc6c5)c(Cl)c4)c3n2)C1 [Example 324]	–	119 nM	≥ 10000 nM	124 nM	≥ 5000 nM	64.4 nM
Cc1cc(Nc2ncnc3cnc(N4C[C@@H]5[C@H](C4)[C@H]4CC[C@@H]5O4)nc23)ccc1Oc1ccc2c(c1)ncn2C [Example 380]	–	64 nM	≥ 10000 nM	43.2 nM	≥ 5000 nM	46.4 nM
CO[C@@H]1CCN(c2ncc3ncnc(Nc4ccc(Oc5ccn6ncnc6c5)c(C)c4)c3n2)C1 [Example 395]	–	57.6 nM	≥ 10000 nM	898 nM	≥ 5000 nM	24.6 nM
Cc1cc(Nc2ncnc3cnc(N4CCN[C@H](C(F)(F)F)C4)nc23)ccc1Oc1ccn2ncnc2c1 [Example 355]	–	24.5 nM	5040 nM	182 nM	≥ 5000 nM	19.3 nM
O[C@H]1C[C@@H]2C[C@H]1CN2c1ncc2ncnc(Nc3ccc(Oc4ccn5ncnc5c4)c(Cl)c3)c2n1 [Example 334]	–	55.7 nM	1650 nM	266 nM	≥ 5000 nM	20.4 nM
Cn1cnc2cc(Oc3ccc(Nc4ncnc5cnc(N6CC7(CCOC7)C6)nc45)cc3Cl)ccc21 [Example 442]	69.5 nM	180 nM	≥ 10000 nM	105 nM	≥ 5000 nM	–
Clc1cc(Nc2ncnc3cnc(N4C[C@@H]5[C@H](C4)[C@H]4CC[C@@H]5O4)nc23)ccc1Oc1ccn2ncnc2c1 [Example 351]	–	58.4 nM	≥ 10000 nM	150 nM	≥ 5000 nM	30.8 nM
Cc1cc(Nc2ncnc3cnc(N4C[C@@H]5[C@@H](C#N)[C@@H]5C4)nc23)ccc1Oc1ccc2c(c1)ncn2C [Example 401]	–	161 nM	≥ 10000 nM	24.8 nM	≥ 5000 nM	149 nM
Cc1cc(Nc2ncnc3cnc(N4CCCC4=O)nc23)ccc1Oc1ccn2ncnc2c1 [Example 137, 1-(8-((4-([1,2,4]triazolo[1,5-a]pyridin-7-yloxy)-3-methylphenyl)amino)pyrimido[5,4-d]pyrimidin-2-yl)pyrrolidin-2-one]	–	166 nM	≥ 10000 nM	1080 nM	≥ 5000 nM	97.7 nM
